Results: US9265764B2, “Uses of chemicals to modulate GSK-3 signaling for treatment of bipolar disorder and other brain disorders” (Massachusetts Institute of Technology, priority 2009, dated 2016)
pIC50: −log10 of the molar value.

Columns and labels:
panel of 358 kinases = test: KINOMEscan active-site dependent competition binding assay; conditions: 10 μM
[1] = test system: TCF/LEF reporter in HEK293 cells; test: TCF/LEF reporter assay with lithium; assay type: cell-based; conditions: FIG. 12
[2] = test system: amphetamine-induced hyperactivity in C57BL/6J mice; test: Amphetamine-induced hyperactivity (AIH) in C57BL/6J mice; assay type: in vivo
[3] = test system: amphetamine-induced hyperactivity in DBA/2J mice; test: Lithium-nonresponsive AIH in DBA/2J mice; assay type: in vivo; conditions: for effect on AIH: DBA/2J
[4] = Serum level after systemic administration
[5] = test system: dopamine transporter (DAT) knockout mice; conditions: 10 mg/kg; i.p.; cited from earlier work
[6] = test system: βCat-eGFP reporter in human U2OS cells; test: Cellular β-catenin stability assay (βCat-eGFP reporter); assay type: cell-based; conditions: for β-catenin accumulation: βCat-eGFP reporter assay
Procedure: Cellular-β-Catenin Stability Assay: To study effects of small molecules on GSK-3/β-catenin signaling in cells, we optimized an image-based assay that measures β-catenin stability. This assay uses human U2OS cells engineered to express a genetically encoded fluorescent reporter consisting of a fusion of β-catenin to enhanced green fluorescent protein (eGFP) that were obtained from Thermo Fisher Scientific (Denmark). […] Lithium treatments at 10 mM and valproic acid at 10 mM also have the same effect in this assay. […] Cells were imaged on an ImageXpress Micro (Molecular Devices) automated microscope at 10× magnification with detection of both DNA and eGFP fluorescence. The percentage of eGFP positive cells was calculated and compared to an untreated control.

human GSK-3β = molecular target: T1, human GSK-3β (Homo sapiens, UniProt P49841); test: in vitro GSK-3β kinase assay (Kinase-Glo luminescence); assay type: biochemical; conditions: FIG. 9 dose response, n=4
T1 construct: Recombinant full-length human GSK-3β (NM_002093) with an N-terminal GST tag; GST (N); purchased BPS Biosciences 40007; host or cells: Sf9 insect cells (baculovirus)

[7] = ICV 1 μl of 0.1, 1.4, 14 μg/μl, FIGS. 16-18
[8] = intra-striatal infusion, 1 μl of 1.4 μg/μl, FIG. 22

T1 sequence (P49841 1-433 isoform P49841-2): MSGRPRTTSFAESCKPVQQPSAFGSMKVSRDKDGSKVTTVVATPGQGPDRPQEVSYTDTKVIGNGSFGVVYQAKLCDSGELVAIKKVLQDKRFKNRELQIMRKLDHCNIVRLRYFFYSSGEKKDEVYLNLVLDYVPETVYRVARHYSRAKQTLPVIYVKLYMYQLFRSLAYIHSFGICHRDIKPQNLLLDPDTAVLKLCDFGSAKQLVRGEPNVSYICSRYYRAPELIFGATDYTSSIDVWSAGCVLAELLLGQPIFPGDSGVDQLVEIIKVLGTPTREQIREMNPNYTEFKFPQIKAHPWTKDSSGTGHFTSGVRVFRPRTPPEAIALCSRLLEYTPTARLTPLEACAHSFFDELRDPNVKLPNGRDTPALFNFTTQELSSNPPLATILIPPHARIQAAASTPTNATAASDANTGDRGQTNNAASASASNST

## Cc1c[nH]c(-c2cnc(NCCNc3ccc(C#N)cn3)nc2-c2ccc(Cl)cc2Cl)n1 [CHIR-99021]
Panel of 358 kinases
  Number of Binding Targets (kinases): 10
[1]; high concentration of Chir99021
  TCF/LEF reporter signal: effect of addition of lithium: synergistic effect
[1]; lower concentrations of Chir99021
  TCF/LEF reporter signal: effect of addition of lithium: only an additive effect
[2]; 6.25 mg/kg single dose i.p., FIG. 24
  effect on AIH: non-effective dose
[2]; 12.5 mg/kg single dose i.p., FIG. 24
  effect on AIH: significantly decreased amphetamine-induced hyperactivity
[2]; 25 mg/kg single dose i.p., FIG. 24
  effect on AIH: significantly decreased amphetamine-induced hyperactivity
[2]; [7]
  effect on AIH: effective in attenuating AIH to levels comparable to those observed after lithium administration
[2]; [8]
  effect on AIH: almost complete ablation of the amphetamine-induced hyperactivity
[2]; systemic (i.p.), C57BL/6J mice
  lowest dose that attenuated AIH: 12.5 mg/kg
[3]; 50 mg/kg i.p., FIG. 26
  effect on AIH: significant attenuation of AIH
[3]; ICV 0.14 μg (1 μl infusion), FIG. 28
  effect on AIH: significantly attenuated AIH
[3]; ICV 1.4 μg (1 μl infusion), FIG. 28
  effect on AIH: significantly attenuated AIH
[3]; systemic (i.p.), DBA/2J mice, FIG. 27
  lowest dose that attenuated AIH: 0.78 mg/kg
[4]; 3.125 mg/kg systemic, extrapolated
  maximum serum level: 3 to 4 µM
[4]; 3.125 mg/kg systemic, extrapolated, listed as compound of formula 7
  maximum serum level: about 4 μM
[4]; 12.5 mg/kg systemic
  maximum serum level: about 15 μM
[4]; 50 mg/kg systemic
  maximum serum level: about 69 μM

## Cn1cc(C2=C(c3ccc(Cl)cc3Cl)C(=O)NC2=O)c2ccccc21 [SB-216763]
Panel of 358 kinases
  Number of Binding Targets (kinases): 31
[2]; 5, 10, 20 mg/kg i.p.
  effect on AIH: None of these GSK-3 inhibitors showed a significant effect on hyperactivity
[2]; ICV in DMSO vehicle
  effect on AIH: None of these GSK-3 inhibitors showed a significant effect on hyperactivity
[5]
  hyperactivity in DAT knockout mice: attenuates hyperactivity

## Cn1cc(C2=C(c3cn(C4CCN(Cc5ccccn5)CC4)c4ccccc34)C(=O)NC2=O)c2ccccc21 [enzastaurin]
Panel of 358 kinases
  Number of Binding Targets (kinases): 75
[6]
  β-catenin accumulation: able to cause β-catenin accumulation
[2]; [7]
  effect on AIH: no effect in AIH
[2]; [8]
  effect on AIH: modestly effective

## CN(C)CCCn1cc(C2=C(c3c[nH]c4ccccc34)C(=O)NC2=O)c2ccccc21 [BIM-I, bisindoylmaleimide I]
Human GSK-3β
  pIC50: ~8.16

## COc1ccc(CNC(=O)Nc2ncc([N+](=O)[O-])s2)cc1 [AR-A014418]
[6]; 20 μM over 20 hrs
  eGFP fluorescence and accumulation of βCat-eGFP reporter: dose dependent increase in eGFP fluorescence
[2]; 9 mg/kg i.p., FIG. 19
  effect on AIH: None of these GSK-3 inhibitors showed a significant effect on hyperactivity

## CCCC(CCC)C(=O)O [valproic acid]
[6]; 10 mM
  eGFP fluorescence and accumulation of βCat-eGFP reporter: same effect

## CN(C)C[C@@H]1CCn2cc(c3ccccc32)C2=C(C(=O)NC2=O)c2cn(c3ccccc23)CCO1 [ruboxistaurin]
Panel of 358 kinases
  Number of Binding Targets (kinases): 95
[6]
  β-catenin accumulation: able to cause β-catenin accumulation
[2]; [7]
  effect on AIH: moderate attenuating effect
